ChEMBL document CHEMBL4651402, “Screening of ~5500 FDA-approved drugs and clinical candidates for anti-SARS-CoV-2 activity” (2021)

Key:
SARS-CoV-2 [1] = assay: microbe, parasite or virus in culture; type: functional, organism-based, Chlorocebus sabaeus, Vero C1008; conditions: Severe acute respiratory syndrome coronavirus 2, Vero C1008, 48 h
SARS-CoV-2 [2] = assay: microbe, parasite or virus in culture; conditions: Severe acute respiratory syndrome coronavirus 2, Vero C1008, 48 h

| Compound | IC50 (SARS-CoV-2 [1]; read-out: IC50) [µM] | IC50 (SARS-CoV-2 [1]; read-out: pIC50 (converted)) [µM] | IC50 (SARS-CoV-2 [2]) [µM] | IC50 (SARS-CoV-2 [2]; read-out: pIC50 (converted)) [µM] |
| --- | --- | --- | --- | --- |
| NCCCCCN | > 20 | > 20 |  |  |
| CN1c2c([nH]c(N)nc2=O)NCC1CNc1ccc(C(=O)N[C@@H](CCC(=O)O)C(=O)O)cc1 (some centres not stated) | > 20 | > 20 |  |  |
| CCOc1nc(N)nc2c1ncn2[C@@H]1O[C@@H]2CO[P@](=O)(OC(C)C)O[C@H]2[C@@]1(C)F | > 50.1 | > 50.1 | > 20 | > 20 |
| Cc1nc2ccc(Oc3ccccc3)cc2c2c1CCN2CCc1ccccc1 | ~4.9 | ~4.9 | > 20 | > 20 |
| CC(C)CN(C[C@H](O)[C@H](Cc1ccccc1)NC(=O)O[C@H]1CO[C@@H]2OCC[C@@H]21)S(=O)(=O)c1ccc(N)cc1 | > 20 | > 20 | > 20 | > 20 |
| Nc1ccn([C@@H]2S[C@H](CO)[C@@H](O)[C@H]2F)c(=O)n1 | > 20 | > 20 | > 20 | > 20 |
| CCOc1ccc(-n2c([C@@H](C)N(Cc3cccnc3)C(=O)Cc3ccc(OC(F)(F)F)cc3)nc3ncccc3c2=O)cc1 (racemic) | > 20 | > 20 | > 20 | > 20 |
| CN1CC[C@H](c2c(O)cc(O)c3c(=O)cc(-c4ccccc4Cl)oc23)[C@H](O)C1 [ALVOCIDIB] | > 10 | > 10 | > 20 | > 20 |
| COc1nc(N)nc2c1ncn2[C@@H]1O[C@H](COP(=O)(N[C@@H](C)C(=O)OCC(C)(C)C)Oc2cccc3ccccc23)[C@@H](O)[C@@]1(C)O (some centres not stated) [BMS-986094] | > 20 | > 20 | > 20 | > 20 |
| Cc1c(-c2ccc(-c3ccccc3F)cc2)nc2ccc(F)cc2c1C(=O)O [BREQUINAR] | > 20 | > 20 | > 20 | > 20 |
| CN(C)C(=O)COC(=O)Cc1ccc(OC(=O)c2ccc(NC(=N)N)cc2)cc1 [CAMOSTAT] | > 100 | > 100 | > 20 | > 20 |
| CCN(CC)CCOc1ccc(C(=C(Cl)c2ccccc2)c2ccccc2)cc1 [CLOMIPHENE] | > 20 | > 20 | > 20 | > 20 |
| COc1cc2c(c(OC)c1OC)-c1ccc(OC)c(=O)cc1[C@@H](NC(C)=O)CC2 [COLCHICINE] | > 100 | > 100 | > 100 | > 100 |
| Nc1ccn([C@@H]2O[C@H](CO)[C@@H](O)[C@@H]2O)c(=O)n1 [CYTARABINE] | > 20 | > 20 | > 50.1 | > 50.1 |
| Cc1nc(OCCCCCN2CCCCC2)cc(-c2ccc(F)cc2)n1 [ENECADIN] | 21.9 | 21.9 | 1.74 | 1.74 |
| COc1cccc2c1C(=O)c1c(O)c3c(c(O)c1C2=O)C[C@@](O)(C(=O)CO)C[C@@H]3O[C@H]1C[C@H](N)[C@@H](O)[C@H](C)O1 [EPIRUBICIN] | > 100 | > 100 |  |  |
| CN1CC(=O)N=C1NC(=O)Nc1cccc(Cl)c1 [FENOBAM ANHYDROUS] | > 25.1 | > 25.1 | > 20 | > 20 |
| c1cc(OCCCN2CCCCC2)ccc1CN1CCCCC1 [JNJ-5207852] | > 20 | > 20 | > 20 | > 20 |
| COc1cc(O)c(C(C)=O)c(OC)c1 [XANTHOXYLIN] |  |  | > 20 | > 20 |
| O=C(O)c1cc(O)c2cccc(O)c2n1 [XANTHURENATE] |  |  | > 20 | > 20 |
| CCC(C(=O)O)c1ccc(-c2ccccc2)cc1 (configuration not stated) [XENBUCIN] |  |  | > 20 | > 20 |
| Cc1cccc(C)c1NC(=O)c1cc(S(N)(=O)=O)c(Cl)cc1O [XIPAMIDE] |  |  | > 20 | > 20 |

| Compound | IC50 (SARS-CoV-2 [1]; read-out: IC50) [µM] | IC50 (SARS-CoV-2 [1]; read-out: pIC50 (converted)) [µM] | IC50 (SARS-CoV-2 [2]) [µM] | IC50 (SARS-CoV-2 [2]; read-out: pIC50 (converted)) [µM] |
| --- | --- | --- | --- | --- |
| Cc1cccc(C)c1NC1=NCCCS1 [XYLAZINE] |  |  | > 20 | > 20 |
| OC[C@@H](O)[C@H](O)[C@@H](O)CO [XYLITOL] |  |  | > 20 | > 20 |
| Cc1cc(C(C)(C)C)cc(C)c1CC1=NCCN1 [XYLOMETAZOLINE] |  |  | > 20 | > 20 |
| C[C@@H](N)c1ccc(C(=O)Nc2ccnc3[nH]ccc23)cc1 [Y-39983] |  |  | > 20 | > 20 |
| O=c1[nH]c2cc(-n3ccnc3)c([N+](=O)[O-])cc2[nH]c1=O [YM-90K] |  |  | > 20 | > 20 |
| O=C(O)[C@@H]1[C@H]2C[C@H]3c4[nH]c5ccccc5c4CCN3C[C@@H]2CC[C@@H]1O [YOHIMBIC ACID] |  |  | > 20 | > 20 |
| COC(=O)[C@@H]1[C@H]2C[C@H]3c4[nH]c5ccccc5c4CCN3C[C@@H]2CC[C@@H]1O [YOHIMBINE] |  |  | > 20 | > 20 |
| O=C(CC(c1ccccc1)c1ccccc1)N1CCN(C(c2ccccc2)c2ccccc2)CC1 [Z160] |  |  | > 20 | > 20 |
| COc1cc(N)c(Cl)cc1C(=O)NC1CN2CCC1CC2 (configuration not stated) [ZACOPRIDE] |  |  | > 20 | > 20 |
| COc1cc(C(=O)NS(=O)(=O)c2ccccc2C)ccc1Cc1cn(C)c2ccc(NC(=O)OC3CCCC3)cc12 [ZAFIRLUKAST] |  |  | > 20 | > 20 |
| Nc1ccn([C@H]2CC[C@@H](CO)O2)c(=O)n1 [ZALCITABINE] |  |  | > 20 | > 20 |
| CC1(CN2CCC(n3c(=O)[nH]c4ccccc43)CC2)OCc2ccccc2-n2cccc21 (configuration not stated) [ZALDARIDE] |  |  | > 20 | > 20 |
| Cc1ncc(-c2csc(N=C(N)N)n2)[nH]1 [ZALTIDINE] |  |  | > 20 | > 20 |
| CC(=O)N[C@H]1[C@H]([C@H](O)[C@H](O)CO)OC(C(=O)O)=C[C@@H]1NC(=N)N [ZANAMIVIR] |  |  | > 20 | > 20 |
| C#C[C@]1(O)CC[C@H]2[C@@H]3CC[C@H]4Cc5nn(S(C)(=O)=O)cc5C[C@]4(C)[C@H]3CC[C@@]21C [ZANOTERONE] |  |  | > 20 | > 20 |
| C=CC(=O)N1CCC([C@@H]2CCNc3c(C(N)=O)c(-c4ccc(Oc5ccccc5)cc4)nn32)CC1 [ZANUBRUTINIB] |  |  | > 20 | > 20 |
| CCCOc1ccccc1-c1nc2[nH]nnc2c(=O)[nH]1 [ZAPRINAST] |  |  | > 20 | > 20 |
| COc1cc(-c2ccc(=O)[nH]n2)ccc1OC(F)F [ZARDAVERINE] |  |  | > 20 | > 20 |
| COc1ccc(CCN(C)CCCN2CCc3cc(OC)c(OC)cc3CC2=O)cc1OC [ZATEBRADINE] |  |  | > 20 | > 20 |
| C[C@H](NC(=O)Cn1nnc2ccccc2c1=O)c1ccc(OC(F)(F)F)cc1 [ZELATRIAZIN] |  |  | > 20 | > 20 |
| Cc1ccc(OCC(O)C(C)NC(C)C)c2c1CCC2 (configuration not stated) [ZENIDOLOL] |  |  | > 20 | > 20 |
| C[C@H]1CCC[C@H](O)CCCCCc2cc(O)cc(O)c2C(=O)O1 [ZERANOL] |  |  | > 20 | > 20 |

| Compound | IC50 (SARS-CoV-2 [1]; read-out: IC50) [µM] | IC50 (SARS-CoV-2 [1]; read-out: pIC50 (converted)) [µM] | IC50 (SARS-CoV-2 [2]) [µM] | IC50 (SARS-CoV-2 [2]; read-out: pIC50 (converted)) [µM] |
| --- | --- | --- | --- | --- |
| Cc1cn([C@H]2C[C@H](N=[N+]=[N-])[C@@H](CO)O2)c(=O)[nH]c1=O [ZIDOVUDINE] |  |  | > 100 | > 100 |
| CC(c1cc2ccccc2s1)N(O)C(N)=O (configuration not stated) [ZILEUTON] |  |  | > 20 | > 20 |
| CC[C@@H]1[C@H](F)C(=O)N[C@@H]1COc1nccc2cc(C(N)=O)c(OC)cc12 [ZIMLOVISERTIB] |  |  | > 20 | > 20 |
| CC(C)(Cc1ccccc1)NCC(O)c1ccc(O)c(NS(C)(=O)=O)c1 (configuration not stated) [ZINTEROL] |  |  | > 20 | > 20 |
| CC(C)S(=O)(=O)n1c(N)nc2ccc(/C(=N\O)c3ccccc3)cc21 [ZINVIROXIME] |  |  | > 20 | > 20 |
| O=C1Cc2cc(CCN3CCN(c4nsc5ccccc45)CC3)c(Cl)cc2N1 [ZIPRASIDONE] |  |  | > 20 | > 20 |
| Cc1ccc2nc(N3CCS(=O)(=O)c4ccccc4C3)nc(NCC3(N)COC3)c2c1 [ZIRESOVIR] |  |  | > 20 | > 20 |
| C[C@H](CSC(=O)c1ccccc1)C(=O)N1C[C@@H](Sc2ccccc2)C[C@H]1C(=O)O [ZOFENOPRIL] |  |  | > 20 | > 20 |
| CS(=O)(=O)c1ccc(-c2cn3ccccc3n2)cc1 [ZOLIMIDINE] |  |  | > 20 | > 20 |
| CC(C(=O)O)c1ccc(Oc2nccs2)cc1 (configuration not stated) [ZOLIPROFEN] |  |  | > 20 | > 20 |
| CN(C)CCc1c[nH]c2ccc(C[C@H]3COC(=O)N3)cc12 [ZOLMITRIPTAN] |  |  | > 20 | > 20 |
| Cc1ccc(-c2nc3ccc(C)cn3c2CC(=O)N(C)C)cc1 [ZOLPIDEM] |  |  | > 20 | > 20 |
| Cc1cc(CC(=O)O)n(C)c1C(=O)c1ccc(Cl)cc1 [ZOMEPIRAC] |  |  | > 20 | > 20 |
| NS(=O)(=O)Cc1noc2ccccc12 [ZONISAMIDE] |  |  | > 20 | > 20 |
| CN1CCN(C(=O)OC2c3nccnc3C(=O)N2c2ccc(Cl)cn2)CC1 (configuration not stated) [ZOPICLONE] |  |  | > 20 | > 20 |
| O[C@@H](COc1cccc2ncccc12)CN1CCN([C@@H]2c3ccccc3[C@@H]3[C@H](c4ccccc42)C3(F)F)CC1 [ZOSUQUIDAR] |  |  | > 20 | > 20 |
| COc1cc2c(c(OC)n1)[C@]1(O)[C@H](O)[C@H](CN(C)C)[C@@H](c3ccccc3)[C@]1(c1ccc(C#N)cc1)O2 [ZOTATIFIN] |  |  | > 20 | > 20 |
| FC(F)c1nc2ccccc2n1-c1nc(N2CCOCC2)nc(N2CCOCC2)n1 [ZSTK-474] |  |  | > 20 | > 20 |
| Cc1ccc(O)cc1 [p-CRESOL] |  |  | > 20 | > 20 |
| Cn1nnc2ccc(C(c3ccc(Cl)cc3)n3cncn3)cc21 (stereo not drawn) [rac-VOROZOLE] |  |  | > 20 | > 20 |
| C[C@@H](NCCc1ccc(O)cc1)[C@@H](O)c1ccc(O)cc1 [rel-RITODRINE] |  |  | > 20 | > 20 |
| enfuvirtide |  |  | > 20 | > 20 |
